Data: BigSolDB 2.1

CO/N=C1\C[C@]2(C[C@@H]3C[C@@H](C/C=C(\C)C[C@@H](C)/C=C/C=C4\CO[C@@H]5[C@H](O)C(C)=C[C@@H](C(=O)O3)[C@]45O)O2)O[C@H](/C(C)=C/C(C)C)[C@H]1C
solubility (mole fraction)
Settings	278.15 K	283.15 K	288.15 K	293.15 K	298.15 K	303.15 K	308.15 K	313.15 K	318.15 K	323.15 K
in ethanol	0.0532	0.0674	0.0814	0.097	0.114	0.133	0.153	0.173	0.196	0.223
in ethylene glycol	0.00364	0.0049	0.00631	0.00796	0.00975	0.0117	0.0137	0.0157	0.0181	0.021
in isopropanol	0.00799	0.0107	0.0139	0.0178	0.0211	0.0253	0.0296	0.0346	0.04	0.0455
in methanol	0.0243	0.0306	0.0383	0.0454	0.0545	0.0634	0.0729	0.0822	0.0927	0.105
in water	3.75e-06	5.13e-06	6.71e-06	8.61e-06	1.08e-05	1.33e-05	1.59e-05	1.85e-05	2.14e-05	2.49e-05
